Measurements published in article PMC7004565, “Nucleotide inhibition of the pancreatic ATP-sensitive K^+ channel explored with patch-clamp fluorometry” (eLife, 2020).

Experiments:
Kir6.2*,G334D-GFP + SUR1 = biological target: T1, Kir6.2*,G334D-GFP + SUR1 (Homo sapiens, UniProt Q14654, G334D); experiment: FRET (ANAP quenching) nucleotide binding in unroofed membranes; details: Hill fit
T1 construct: ANAP labelling is specific and only full-length Kir6.2 is expressed at the cell membrane; expressed in transfected cells; host or cells: HEK-293T
T1 sequence (Q14654 whole entry G334D): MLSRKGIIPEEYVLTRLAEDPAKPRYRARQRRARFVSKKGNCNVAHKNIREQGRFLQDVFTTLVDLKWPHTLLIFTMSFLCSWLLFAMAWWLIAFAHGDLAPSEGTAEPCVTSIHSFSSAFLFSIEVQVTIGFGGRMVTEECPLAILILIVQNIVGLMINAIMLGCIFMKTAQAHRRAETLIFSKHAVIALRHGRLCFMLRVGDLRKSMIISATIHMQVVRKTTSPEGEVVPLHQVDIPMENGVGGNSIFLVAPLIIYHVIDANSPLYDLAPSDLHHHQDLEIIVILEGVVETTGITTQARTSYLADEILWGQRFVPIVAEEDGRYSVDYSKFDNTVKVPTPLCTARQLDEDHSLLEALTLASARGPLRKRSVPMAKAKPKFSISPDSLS
T1 sequence (Q09428 whole entry partner): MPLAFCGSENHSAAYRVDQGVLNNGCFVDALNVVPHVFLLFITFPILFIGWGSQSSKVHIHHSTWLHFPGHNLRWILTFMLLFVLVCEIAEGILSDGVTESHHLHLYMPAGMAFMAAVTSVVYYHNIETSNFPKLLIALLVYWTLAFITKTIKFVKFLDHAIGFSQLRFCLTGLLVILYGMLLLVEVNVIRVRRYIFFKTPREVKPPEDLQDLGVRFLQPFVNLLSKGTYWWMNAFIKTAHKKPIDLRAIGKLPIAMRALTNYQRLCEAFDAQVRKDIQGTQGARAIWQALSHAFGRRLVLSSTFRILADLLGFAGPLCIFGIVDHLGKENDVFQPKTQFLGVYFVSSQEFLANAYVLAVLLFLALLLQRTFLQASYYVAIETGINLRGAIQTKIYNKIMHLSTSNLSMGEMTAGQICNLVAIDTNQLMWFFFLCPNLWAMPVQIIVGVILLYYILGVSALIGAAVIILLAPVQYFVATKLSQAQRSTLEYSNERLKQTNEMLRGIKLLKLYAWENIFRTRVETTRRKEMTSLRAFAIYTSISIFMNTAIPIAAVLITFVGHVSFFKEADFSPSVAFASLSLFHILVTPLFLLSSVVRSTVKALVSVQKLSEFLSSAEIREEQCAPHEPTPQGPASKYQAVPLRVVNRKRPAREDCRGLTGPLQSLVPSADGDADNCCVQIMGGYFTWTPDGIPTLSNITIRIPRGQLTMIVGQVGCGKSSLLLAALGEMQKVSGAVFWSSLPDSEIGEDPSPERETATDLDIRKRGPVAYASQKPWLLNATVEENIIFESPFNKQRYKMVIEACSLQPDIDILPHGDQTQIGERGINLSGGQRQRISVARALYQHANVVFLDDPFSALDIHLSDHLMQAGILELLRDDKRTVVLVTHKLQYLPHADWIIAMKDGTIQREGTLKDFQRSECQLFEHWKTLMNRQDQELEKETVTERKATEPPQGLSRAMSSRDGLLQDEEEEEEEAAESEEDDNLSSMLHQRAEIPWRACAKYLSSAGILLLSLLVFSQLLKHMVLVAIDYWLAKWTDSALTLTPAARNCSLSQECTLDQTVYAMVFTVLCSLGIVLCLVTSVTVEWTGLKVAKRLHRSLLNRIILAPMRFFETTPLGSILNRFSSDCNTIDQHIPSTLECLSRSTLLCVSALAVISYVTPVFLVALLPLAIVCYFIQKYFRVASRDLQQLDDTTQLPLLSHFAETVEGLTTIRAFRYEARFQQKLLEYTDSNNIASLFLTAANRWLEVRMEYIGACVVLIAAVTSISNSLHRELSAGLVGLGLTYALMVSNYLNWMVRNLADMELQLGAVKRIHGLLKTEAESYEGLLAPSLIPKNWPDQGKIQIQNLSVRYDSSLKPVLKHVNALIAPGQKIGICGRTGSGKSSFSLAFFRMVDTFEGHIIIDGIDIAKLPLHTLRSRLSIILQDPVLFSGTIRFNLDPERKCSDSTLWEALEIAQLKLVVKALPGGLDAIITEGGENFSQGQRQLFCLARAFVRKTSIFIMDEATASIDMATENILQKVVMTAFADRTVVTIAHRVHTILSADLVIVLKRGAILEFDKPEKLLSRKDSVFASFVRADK
Source text: To measure nucleotide binding, cells transfected with Kir6.2*-GFP + SUR1 were briefly sonicated, leaving behind unroofed plasma membrane fragments ([Heuser, 2000]; [Zagotta et al., 2016]; [Puljung et al., 2019]) containing ANAP-labelled KATP channels with the intracellular nucleotide-binding sites exposed to the bath solution. The sample was excited with a 385 nm LED and emitted fluorescence from the membrane fragments was passed through a spectrometer, allowing us to separate ANAP, GFP, and TNP-ATP fluorescence by peak wavelength (Figure 1E,F). As expected from FRET, increasing the concentration of TNP-ATP caused a decrement in the ANAP peak at 472 nm and a concomitant increase in the TNP-ATP peak at 561 nm (Figure 1F). We used the quenching of the ANAP peak as a direct measure of TNP-ATP binding as this signal was specific to KATP. In contrast, the peak TNP-ATP fluorescence may include contributions from both specific and non-specific nucleotide binding, as well as direct excitation of TNP-ATP in solution by the 385 nm excitation light. Due to the sharp cut-off of the GFP emission spectrum at shorter wavelengths, our measurements of peak ANAP fluorescence were unaffected by the presence of the GFP tag on Kir6.2. […]
Epifluorescence imaging and spectroscopy were performed using a Nikon Eclipse TE2000-U microscope with a 60x water immersion objective (Plan Apo VC, NA = 1.2, Nikon; Kingston upon Thames, UK) or a 100x oil immersion objective (Nikon, Apo TIRF, NA = 1.49). […] Fluorescence spectra were collected by exciting ANAP as above but using a 400 nm long-pass emission filter (ThorLabs), then passing emitted light through an IsoPlane 160 Spectrometer (Princeton Instruments; Trenton, NJ) with a 300 grooves mm^-1 grating. […]
Unroofed membranes were prepared as described previously ([Heuser, 2000]; [Zagotta et al., 2016]; [Puljung et al., 2019]). […] Unroofed membrane fragments were nearly invisible in bright-field images and identified by their GFP and ANAP fluorescence. […]

Kir6.2*-GFP + SUR-K205E = biological target: T2, Kir6.2*-GFP + SUR-K205E (Homo sapiens, UniProt Q14654); experiment: Current inhibition in excised inside-out patches (patch-clamp fluorometry); assay type: biochemical; details: Mg2+-free, Hill fit
T2 construct: ANAP labelling is specific and only full-length Kir6.2 is expressed at the cell membrane; expressed in transfected cells; host or cells: HEK-293T
T2 sequence (Q14654 whole entry, stated change not applied): as the sequence (Q14654 whole entry G334D) above, with D334G counted along it
T2 sequence (Q09428 whole entry K205E partner): as the sequence (Q09428 whole entry partner) above, with K205E counted along it
Source text: (§1) We introduced a charge neutralization (alanine, K205A) and a charge reversal (glutamate, K205E) mutation at this position and measured simultaneous nucleotide binding and current inhibition with PCF (Figure 4B,C,D). The binding and inhibition curves for TNP-ATP almost perfectly overlaid for the SUR1-K205A mutant (Figure 4C). The same was also true for SUR1-K205E (Figure 4D). Data were fit with the MWC-type model as before. […] This was reflected by a decrease in the estimated KA for TNP-ATP, which correlated with the degree of conservation of the mutation, that is we observed a larger effect for the charge reversal compared to the charge neutralization mutation (Figure 4E). However, in addition to direct effects of K205 on nucleotide binding, we also observed a shift in D for both mutations (Figure 4E).
(§2) Currents were measured as described above.

Kir6.2*-GFP + SUR-K205A = biological target: T3, Kir6.2*-GFP + SUR-K205A (Homo sapiens, UniProt Q14654); experiment: as above; assay type: biochemical; details: Mg2+-free, Hill fit
T3 construct: ANAP labelling is specific and only full-length Kir6.2 is expressed at the cell membrane; expressed in transfected cells; host or cells: HEK-293T
T3 sequence (Q14654 whole entry, stated change not applied): as the sequence (Q14654 whole entry G334D) above, with D334G counted along it
T3 sequence (Q09428 whole entry K205A partner): as the sequence (Q09428 whole entry partner) above, with K205A counted along it
Source text: as §1, §2

Nc1ncnc2c1ncn2[C@@H]1O[C@H](COP(=O)(O)OP(=O)(O)OP(=O)(O)O)[C@H]2OC3(O[C@H]21)C([N+](=O)[O-])=CC(=[N+]([O-])[O-])C=C3[N+](=O)[O-] (stereo partly shown) [TNP-ATP, trinitrophenyl-ATP] was tested, and the “h (Hill coefficient) fluorescence quenching” value (Kir6.2*,G334D-GFP + SUR1) was 2.63, the Emax (Kir6.2*,G334D-GFP + SUR1; fraction, read-out: Emax fluorescence quenching) was 8% and the EC50 (Kir6.2*,G334D-GFP + SUR1; n = 9, read-out: EC50 fluorescence quenching) was 493 µM. For the same compound, the “h (Hill coefficient) current inhibition” value (Kir6.2*-GFP + SUR-K205E) was 0.79, the IC50 (Kir6.2*-GFP + SUR-K205E; n = 9) was 631 µM and the “h (Hill coefficient) current inhibition” value (Kir6.2*-GFP + SUR-K205A) was 0.75. The IC50 (Kir6.2*-GFP + SUR-K205A; n = 9) was 166 µM.
